This note sets out measurements from patent US20070225291A1, “Substituted Pyrazinone Compounds for the Treatment of Inflammation” (Pfizer Inc., priority 2003, published 2007).

In this test the target is T1, IKK-2 (Homo sapiens, UniProt O14920).
T1 construct: made in house; host or cells: baculovirus-infected insect cells (SF9)
T1 sequence (O14920 1-756): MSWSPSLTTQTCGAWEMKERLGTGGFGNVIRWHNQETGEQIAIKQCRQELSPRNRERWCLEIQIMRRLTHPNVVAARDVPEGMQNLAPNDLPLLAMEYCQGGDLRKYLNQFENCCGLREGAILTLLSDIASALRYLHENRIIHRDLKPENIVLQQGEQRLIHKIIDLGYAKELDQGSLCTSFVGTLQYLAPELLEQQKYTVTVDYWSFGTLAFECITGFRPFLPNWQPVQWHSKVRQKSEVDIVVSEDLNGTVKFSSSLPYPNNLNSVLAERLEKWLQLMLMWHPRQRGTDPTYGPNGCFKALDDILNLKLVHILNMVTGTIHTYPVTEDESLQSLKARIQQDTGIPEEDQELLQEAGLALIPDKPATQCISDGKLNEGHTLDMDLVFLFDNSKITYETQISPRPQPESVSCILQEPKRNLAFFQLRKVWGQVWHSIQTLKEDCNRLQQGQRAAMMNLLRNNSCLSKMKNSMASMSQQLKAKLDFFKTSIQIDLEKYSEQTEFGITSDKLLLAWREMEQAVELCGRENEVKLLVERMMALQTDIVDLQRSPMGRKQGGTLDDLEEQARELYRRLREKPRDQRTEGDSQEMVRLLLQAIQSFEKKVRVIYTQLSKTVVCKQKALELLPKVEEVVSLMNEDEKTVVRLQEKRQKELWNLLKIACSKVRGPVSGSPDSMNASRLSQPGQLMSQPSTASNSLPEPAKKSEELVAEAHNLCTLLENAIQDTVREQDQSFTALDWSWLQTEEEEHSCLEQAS
The test can be described thus: IKK-2 Resin Enzyme Assay (IKK-2 IC50 determination). Format: biochemical. Particulars: rhIKK-2 homodimer; biotinylated IκBα peptide 5 μM, 1 μM ATP, 25° C., 30 min. The source says:
cDNAs of human IKK-1 and IKK-2 were amplified by reverse transcriptase-polymerase chain reaction from human placental RNA (Clonetech). hIKK-1 was subcloned into pFastBac HTa (Life Technologies) and expressed as N-terminal His6-tagged fusion protein. The hIKK-2 cDNA was amplified using a reverse oligonucleotide primer which incorporated the peptide sequence for a FLAG-epitope tag at the C-terminus of the IKK-2 coding region (DYKDDDDKD). The hIKK-2:FLAG cDNA was subcloned into the baculovirus vector pFastBac. The rhIKK-2 (S177S, E177E) mutant was constructed in the same vector used for wild type rhIKK-2 using a QuikChange™ mutagenesis kit (Stratagene). Viral stocks of each construct were used to infect insect cells grown in 40L suspension culture. […] Cell lysates were stored at −80° C. until purification of the recombinant proteins was undertaken as described below.
A 10-liter culture of baculovirus-expressing IKK-2 tagged with FLAG peptide was centrifuged and the cell pellet (MOI=0.1 and I=72 hrs) was re-suspended in buffer A. These cells were microfluidized, and centrifuged at 100,000×g for 45 min. Supernatant was passed over a G-25 column equilibrated with Buffer A. Protein peak was collected and incubated with anti-FLAG affinity resin on a rotator overnight in buffer B. The resin was washed in batch with 10-15 bed volumes of buffer C. Washed resin was poured into a column and rhIKK-2 homodimer was eluted using 5 bed volumes of buffer B containing FLAG peptide. 5 mM DTT, 0.1% NP-40 and BSA (concentrated to 0.1% in final amount) was added to the eluted enzyme before concentrating in using an Amicon membrane with a molecular weight cut-off of 30 kDa. Enzyme was aliquoted and stored at −80° C.
IKK-2 kinase activity was measured using a biotinylated IκBα peptide (Gly-Leu-Lys-Lys-Glu-Arg-Leu-Leu-Asp-Asp-Arg-His-Asp-Ser32-Gly-Leu-Asp-Ser36-Met-Lys-Asp-Glu-Glu) (American Peptide Co.). 20 ul of the standard reaction mixture contained 5 μM biotinylated IκBA peptide, 0.1 μCi/reaction [γ-^33P] […] ATP was measured using a Top-Count NXT (Packard).
Usually IC50 stands for the midpoint of a concentration-inhibition curve. In turn, `Nc1nc(-c2cc(F)ccc2O)cn(C2CCCNC2)c1=O` (stereo not drawn) [Example 2, 3-amino-5-(5-fluoro-2-hydroxyphenyl)-1-piperidin-3-ylpyrazin-2(1H)-one] had an IC50 of 0.903 µM. The value for `Nc1nc(-c2ccc(F)cc2O)cn(C2CCCNC2)c1=O` (stereo not drawn) [Example 3, 3-amino-5-(4-fluoro-2-hydroxyphenyl)-1-piperidin-3-ylpyrazin-2(1H)-one] was 1.79 µM; that for `Nc1nc(-c2ccccc2O)cn(C2CCCNC2)c1=O` (stereo not drawn) [Example 1, 3-amino-5-(2-hydroxyphenyl)-1-piperidin-3-ylpyrazin-2(1H)-one] was 1.08 µM.
